Results from PubChem BioAssay AID493060 (The Scripps Research Institute Molecular Screening Center, 2011).
Calls of active or inactive are those of the source. How the calls were made is not given here.

What follows are compounds tested against Aryl hydrocarbon receptor (Homo sapiens) (UniProt P35869) (assay: AHR activator potency, dose response, cell-based, luminescence, luciferase reporter, human (AID 493060)). Conditions: Human cell line AHR-responsive luciferase reporter.
Sequence of Aryl hydrocarbon receptor (Homo sapiens) (P35869 whole entry, looked up): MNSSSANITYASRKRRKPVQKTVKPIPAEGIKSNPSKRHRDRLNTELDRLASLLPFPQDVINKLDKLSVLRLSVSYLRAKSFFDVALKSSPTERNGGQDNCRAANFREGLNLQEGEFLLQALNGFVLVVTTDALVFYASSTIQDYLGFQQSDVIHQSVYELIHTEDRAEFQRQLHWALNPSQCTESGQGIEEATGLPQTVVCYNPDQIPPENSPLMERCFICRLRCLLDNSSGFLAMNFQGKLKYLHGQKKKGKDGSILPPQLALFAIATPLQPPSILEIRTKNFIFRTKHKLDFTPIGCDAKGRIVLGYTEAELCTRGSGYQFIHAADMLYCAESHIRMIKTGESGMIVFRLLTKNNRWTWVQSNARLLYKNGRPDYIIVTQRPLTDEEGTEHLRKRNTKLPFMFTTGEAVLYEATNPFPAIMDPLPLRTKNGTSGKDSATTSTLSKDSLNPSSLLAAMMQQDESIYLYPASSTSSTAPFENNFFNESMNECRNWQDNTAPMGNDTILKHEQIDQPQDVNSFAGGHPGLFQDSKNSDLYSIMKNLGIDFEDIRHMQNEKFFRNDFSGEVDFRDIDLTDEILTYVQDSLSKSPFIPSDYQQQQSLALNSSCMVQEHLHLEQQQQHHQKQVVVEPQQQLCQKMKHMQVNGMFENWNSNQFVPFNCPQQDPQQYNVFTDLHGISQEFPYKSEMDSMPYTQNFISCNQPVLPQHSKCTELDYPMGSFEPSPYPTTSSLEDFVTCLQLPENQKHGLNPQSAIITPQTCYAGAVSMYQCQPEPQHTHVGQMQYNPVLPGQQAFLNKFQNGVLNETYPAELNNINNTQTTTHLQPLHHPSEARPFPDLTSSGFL

SMILES	EC50
CC(=O)c1ccc(NC(=O)c2cc(Cl)nc3ccccc23)cc1	968 nM
CCOc1ccc(NC(=O)c2cc3ccccc3cc2OC)cc1	1780 nM
CN1CCN(CCCNC(=O)c2cc3c(-c4ccc(Cl)cc4)nn(C)c3s2)CC1	282 nM
COc1cc2c(cc1NC(=O)Nc1ccc(C)cc1)oc1ccccc12	889 nM
CCOC(=O)Cc1cc(-c2ccc(O)cc2)nc2ccc3ccccc3c12	1080 nM
COc1ccccc1NC(=O)Nc1cccnc1	1470 nM
Cc1ccc(-c2cc(-c3cccs3)[nH]n2)c(O)c1	853 nM
Cc1csc(SCC(=O)Nc2ccc(Cl)cn2)n1	683 nM
COc1ccccc1NC(=O)c1ccc2c(c1)nnn2C	139 nM
CCOc1ccc(-c2cc(C)n3nc(C(N)=O)cc3n2)cc1	1340 nM
CCOc1ccccc1NC(=O)c1ccc2nccnc2c1	2840 nM
COc1ccc(NC(=O)c2cccc3c(Br)cccc23)cc1	1860 nM
O=C1c2ccccc2-c2nc3ccccc3nc21	3240 nM
Cc1c(-c2ccn[nH]2)cc(NC(=O)c2ccc(Cl)cc2)c(=O)n1N	513 nM

The next lines start with the values.

EC50	SMILES
1130 nM	Cc1ccc(Nc2ncccc2C(N)=O)cc1
6250 nM	O=C(CN1CCOCC1)Nc1nc2ccc([N+](=O)[O-])cc2s1
767 nM	Cn1c(N)c(C(=O)Nc2ccccc2F)sc1=S
2980 nM	COc1ccccc1C(=O)Nc1ccc(N2CCCCC2)cc1
1620 nM	COc1ccc(C(=O)Nc2cc(OC)c(NC(=O)c3ccco3)cc2OC)cc1
3330 nM	CN(C)c1nc(N)nc(-c2nc3ccccc3s2)n1
217 nM	Cc1cc(Nc2ccc(Br)cc2)n2nc(C)nc2n1
2570 nM	COC(=O)c1ccccc1NC(=O)Cn1ccnc1
1330 nM	Cc1ccccc1-c1nc(-c2cccnc2)no1
1400 nM	Cc1nc(N)nc(Nc2ccc(Cl)cc2)c1Br
260 nM	Cn1c(C(=O)N2CCC(C(N)=O)CC2)cc2cc(Cl)ccc21
747 nM	COc1cc2ccccc2cc1C(=O)Nc1ccc(C)cc1
2410 nM	COc1ccc(Cl)cc1C(=O)Nc1ccc(N(C)C(C)=O)cc1
inactive	O=C(Nc1ccon1)c1cnc2sccn2c1=O
250 nM	CCCC(=O)Nc1nn(C)c2nc3cc(C)ccc3cc12
2490 nM	CCC(=O)Nc1cc(OC)c(NC(=O)c2ccccc2)cc1OC
